Like-named read-outs stand apart in the source and are kept apart here.
Key:
[1] = test system: SF767 intracranial tumors; test: Overall survival of mice harboring SF767 intracranial tumors; assay type: in vivo, athymic nude mice; conditions: for Median Survival: TIC10 25 mg/kg oral, bevacizumab 10 mg/kg i.v.
Description: For intracranial xenografts, anesthetized athymic nude mice were implanted with 2×10^5 SF767 cells in a 25 μL suspension of serum- and antibiotic-free RPMI. The site of injection was a burr hole created 1 mm lateral to the midline of the skull and 1 mm anterior to the coronal suture. The injection was gradually administered over 5 minutes with a Hamilton syringe and the burr hole was sealed using bone wax. Tumor take was assessed by bioluminescent imaging 2 weeks following implantation. Bioluminescent imaging of tumors was carried out on an IVIS imaging system as described in Wang et al., 2003, PNAS 100:15095-15100.

[2] = test system: Eμ-Myc transgenic mice that spontaneously develop lymphoma; conditions: weekly oral TIC10 25 mg/kg during weeks 9-12 of age
Description: Near-infrared imaging of mice was carried out on a Pearl Impulse imaging system (LI-COR) following tail-vein injection of AngioSense® 680 (VisEn Medical, Woburn, MA) according to the manufacturer's protocols. 6 week old Eμ-myc mice were obtained from The Jackson Laboratory (B6.Cg-Tg(IghMyc)22Bri/J).
P value determined by log-rank test. For relative tumor volume plots, tumor size is expressed relative to the tumor size on day 0, which is defined as the day of treatment initiation.

TRAIL [3] = test system: TRAIL
Description: (§1) Tissue analyses. […] Serum was then removed following centrifugation for 5 minutes.
ELISA for TRAIL was carried out using the Quantikine® TRAIL/TNFSF10 kit according to the manufacturer's protocol (DTRL00, R&D systems, Minneapolis, MN). […] Absorbances were measured with a DTX 880 plate reader (Beckman Coulter).
(§2) Error bars indicate s.d. of replicates.

GBM cell lines = test: Cell viability assays of GBM cell lines; assay type: cell-based, human; conditions: 72 hr post-treatment, p53-independent
Description: For all flow cytometry analyses, floating and adherent cells were analyzed on a Coulter-Beckman Elite Epics cytometer. […] Cells were gated on forward and side scatter to eliminate debris and dead cells from the analysis. […] Cell viability assays were carried out in 96-well black-walled clear-bottom plates using CellTiter-Glo® (Promega) according to the manufacturer's protocols. Imaging and quantification of these assays were performed on an IVIS imaging system (Xenogen).

HCT116 p53−/− xenograft = test: HCT116 p53−/− subcutaneous xenograft; assay type: in vivo, athymic nu/nu mice; conditions: 3 doses on day 0, 3 and 6, TIC10 i.p.
Description: (§4) For subcutaneous xenografts, 4-6 week old female, athymic nu/nu mice (Charles River Laboratories) were inoculated with 1×10^6 cells (2.5×10^6 for T98G) of indicated cell lines in each rear flank as a 200 μL suspension of 1:1 Matrigel (BD):PBS. All intraperitoneal and intravenous injections were given at a total volume of 200 μL. […] Tumors were monitored using digital calipers at indicated time points. All subcutaneous tumors were allowed to establish for 1-4 weeks post-injection until reaching a volume of ˜125 mm^3 before treatment initiation. Relief of tumor burden was monitored for 3 weeks following disappearance of the tumor and confirmed by visual inspection after euthanasia.
(§5) Error bars indicate standard deviation (s.d.) of replicates. *P<0.05 and **P<0.005 between the indicated condition and control unless otherwise indicated.

SW480 xenograft = test: SW480 subcutaneous xenograft; assay type: in vivo, athymic nu/nu mice; conditions: single dose 30 mg/kg, intraperitoneal or oral delivery
Description: as §4

HCT116 xenograft = test: HCT116 xenograft, single oral dose titration; assay type: in vivo, athymic nu/nu mice; conditions: 25 mg/kg
Description: as §4, §5

[4] = test system: subcutaneous T98G xenografts; test: T98G subcutaneous xenograft; assay type: in vivo, athymic nu/nu mice; conditions: single oral dose, 30 mg/kg
Description: TIC10 was tested in preclinical models of GBM as a monoagent and in combination with bevacizumab.

[5] = test system: intracecal HCT116 p53−/− tumors; conditions: multi-dose regimen, once a week
Description: Intracecal implantation was performed as described in Cespedes, M. V., et al., Am J Pathol, 2007, 170(3): p. 1077-1085.
FIG. 37 is a graph showing percent of cohorts with implanted with intracecal HCT116 p53^−/− tumors with evident tumors at the primary and distal sites at endpoint (n=5).
FIG. 38 is a graph showing body weight of mice at endpoint. Error bars indicate s.d. of replicates.

[6] = Blood-brain barrier crossing; conditions: in vivo
HCT116 cells = test: Cell viability in HCT116 cells after 1 hr pre-incubation of agent at indicated temperatures; assay type: cell-based, human; conditions: TIC10 5 μM, 1 hr pre-incubation at indicated temperatures, 72 hr
[7] = test system: TRAIL mRNA in HCT116 p53−/− cells; test: RT-qPCR analysis of TRAIL mRNA levels; assay type: cell-based, human; conditions: 48 hr
Description: Total RNA was extracted using RNeasy Minikit (Qiagen) by following the manufacturer's instructions. cDNA was generated using SuperScript II (Invitrogen) with 1 μg of RNA and oligodT. […] PCR amplification was performed with the Applied Biosystems 7900HT Fast Real-time Detection System. Samples were standardized to 10 ng/μl and twenty ng of cDNA per sample was then utilized as a template for real-time PCR using a SYBR Green Master Mix (Qiagen Corp, USA). Samples were normalized to GAPDH used under identical conditions. Quantitation used the 2ΔΔCt method of crossing thresholds described in Livak et al., 2001, Methods. […] Reactions were performed in 384 well optical plates in a 7900HT instrument (Applied Biosystems), with 10 ul reaction volumes. Data analysis used the ABI PRISM 7900 Sequence Detection System 2.2 software. To exclude the possibility of genomic DNA contamination, control PCR reactions with no cDNA template and No-RT control samples were also performed for each gene-specific primer set. Quadruplicates of each PCR reaction were performed and the resultant data was averaged.

[8] = test system: surface TRAIL in a panel of cancer cells; test: Surface TRAIL by flow cytometry in cancer cell lines; assay type: cell-based, human; conditions: 72 hr, p53-independent
[9] = test system: freshly resected colon tumor cells from a human patient; conditions: TIC10 0.6-20 μM
Description: (§3) For all flow cytometry analyses, floating and adherent cells were analyzed on a Coulter-Beckman Elite Epics cytometer. For surface TRAIL experiments, adherent cells were harvested by brief trypsinization, fixed in 4% paraformaldehyde in PBS for 20 min, incubated with an anti-TRAIL antibody for 2 hr (Abeam), washed and incubated with anti-rabbit Alexafluor 488 (Invitrogen) for 30 min, and analyzed. Cells were gated on forward and side scatter to eliminate debris and dead cells from the analysis. Surface TRAIL data is expressed as median fluorescence intensity relative to that of control samples unless indicated as otherwise. For Sub-G1 and cell cycle profile experiments, all cells were pelleted and ethanol fixed followed by staining with propidium iodide (Sigma) in the presence of RNAse. Cell viability assays were carried out in 96-well black-walled clear-bottom plates using CellTiter-Glo® (Promega) according to the manufacturer's protocols. Imaging and quantification of these assays were performed on an IVIS imaging system (Xenogen).
as §2

[10] = test system: pAkt and pERK in HCT116 p53−/− cells; test: Western blot analysis of pAkt and pERK; assay type: cell-based, human; conditions: TIC10 2.5, 5, 10 μM, 72 hr, dose-dependent
Description: Western blot analysis was conducted as described in Wang, W. et al., PNAS 103, 11003-11008, 2006, using NuPAGE 4-12% Bis-Tris and visualized using Supersignal West Femto (Thermo Scientific) and X-ray film. Nuclear and cytoplasmic extracts were prepared using a cytoplasmic lysis buffer (10 mM HEPES, 10 mM KCl, and 2 mM MgCl2, 1 mM DTT) followed by a nuclear lysis buffer (20 mM HEPES, 420 mM NaCl, 1.5 mM MgCl2, 250 μM EDTA, 25% glycerol). For all lysis buffers, fresh protease inhibitor (Roche) and 1 mM sodium orthovanadate was added immediately prior to use.
TIC10-induced changes in regulators of Foxo3a such as IKK, Akt, and ERK were determined.
FIG. 61 is a graph showing time course of protein expression levels of TIC10-induced effects determined by densitometry of Western blots from replicate experiments as in FIG. 60 (n=3). Data is express relative to the control sample for each time point and normalized to Ran. TRAIL was quantified by flow cytometry as a parallel experiment (n=3).

TRAIL [11] = conditions: TIC10 100 mg/kg i.v.
Description: as §1

cancer cell lines = test: Colony formation assays, cancer cell lines; assay type: cell-based, human; conditions: 10 μM, 72 hr
HCT116 p53−/− cells = test: Sub-G1 / cell cycle profile, HCT116 p53−/− cells; assay type: cell-based, human; conditions: 5 μM, 72 hr
Description: as §3

HFF cells [12] = conditions: 5 μM, 72 hr
Description: as §3

[13] = test system: freshly isolated GBM cells; conditions: temozolomide-resistant, previously irradiated, 72 hr
Description: as §3

[14] = test system: human TRAIL gene promoter in HCT116 Bax−/− cells; conditions: first 504 base pairs of the TRAIL promoter
Description: Bioluminescent high-throughput screening using the NCI diversity set II was carried out in HCT116 Bax^−/− cells that were stably cotransfected to express a firefly luciferase construct under transcriptional control of the first 504 base pairs of the TRAIL promoter upstream of the start of transcription of the human TRAIL gene. Compounds were tested at a working concentration of 20 nM, 200 nM, 500 nM, and 1 μM with bioluminescent assessment of transcriptional activity at 12, 24, 36, and 48 hours post-treatment.

DLD-1 xenografts = test: DLD-1 subcutaneous xenograft; conditions: single dose, 1 week post-treatment, TIC10 i.p., TRAIL i.v.
Description: as §4

[15] = test system: MDA-MB-231 human breast cancer xenografts; test: MDA-MB-231 subcutaneous xenograft; conditions: single doses, TIC10 i.p., TRAIL i.v.
Description: as §4, §5

[16] = Pharmacokinetic analysis of TIC10 in plasma
Description: HPLC analysis was performed by absorbance detection at 239 nm on an Agilent 1200 series system (Agilent, Santa Clara, CA) using an Eclipse XDB-C18 column (Agilent) and a 100 μL injection loop. Isocratic elution at 1 mL/minute was carried out in 0.1% trifluoroacetic acid in dH2O. An acetonitrile (ACN) gradient was carried out for elution as 15-20% ACN at 0-5 minutes, 20-23% for 5-12 minutes, 25% for 12-18 minutes. […] For all plasma samples, blood was obtained by terminal cardiac puncture of the left ventricle and collected into EDTA tubes (BD). Samples were centrifuged at 500 g for 10 minutes. Plasma was deproteinated by the adding 30 μL of perchloric acid to 100 μL of samples, vortexed for 15 seconds, centrifuged for 2 minutes, and the supernatant was immediately injected into the HPLC. AUC was normalized to an internal serum peak with a retention time of 8.1 minutes. AUC data versus time was fit with a two-compartment open model with first order elimination from central compartment using the equation AUC=Ae^−αt+Be^−βt where t=time and A and B are the extrapolated concentrations at the initiation of the two phases (distribution and elimination). Half-lives calculated as t1/2α=0.693/α and t1/2β=0.693/β. Other equations used for calculation include CL=dose/AUC0-∞ and Vd=dose/(AUC0-∞Xβ).
Error bars represent standard error mean of replicates.

[17] = Body weight and liver histology of treated mice; conditions: TIC10 100 mg/kg i.p. single dose; 25 mg/kg oral weekly for 4 weeks
Description: Tissue analyses. Mice were humanely sacrificed at indicated time points and excised normal tissue or tumors were fixed in 4% paraformaldehyde/PBS overnight at 4° C. If plasma samples were desired, 500 μL of blood was collected by terminal cardiac puncture under anesthesia in EDTA-Vacutainer tubes (BD). Serum samples were collected in a similar fashion but in microcentrifuge tubes followed by a 30 minute incubation at room temperature to allow for clotting. Serum was then removed following centrifugation for 5 minutes. Paraffin-embedded blocks, serial section slides, and hematoxylin and eosin staining were prepared according to standard procedures. TUNEL staining was performed using the ApopTag® Peroxidase In Situ Apoptosis Detection Kit (Millipore). For IHC analysis, slides were dewaxed in xylene and hydrated in a decreasing gradient of ethanol. Antigen retrieval was carried out by boiling in 10 mM citric acid (pH 6.0) for 6 min. Samples were blocked with streptavidin and biotin blocking solutions and goat serum (Vector Laboratories). Primary antibodies were incubated overnight at 4° C. in a humidity chamber. Incubation with biotinylated secondary antibody and DAB deposition was carried out according the manufacturer's protocol (Vector Laboratories DAB Substrate Kit for Peroxidase). […] Images were recorded on an Axioskop microscope using QCapture software (QImaging).

HFF cells [18] = test: Colony formation parallel experiment, HFF cells
Description: Indicated cell lines were plated at 500 cells per well and treated the following day in fresh complete media after adherence. At 3 days post-treatment, the media was replaced with drug-free media and cells were propagated for 10 days with fresh media given once every 3 days. At the end of the 10 day period, cells were washed in PBS, fixed with methanol, and stained with Coomassie blue, rinsed, and dried for quantification.
Error bars indicate standard deviation (s.d.) of replicates. […] Error bars indicate standard deviation (s.d.) of replicates.

[19] = Serum chemistry of C57/B6 mice treated weekly for 4 weeks
Description: For CBC/differential and serum chemistry assays, 1 mL of blood was harvested from anesthetized mice by terminal cardiac puncture of the left ventricle. For serum chemistry, 500 μL, was placed into a microfuge tube and allowed to clot for 30 minutes at room temperature followed by centrifugation. Serum was removed, centrifuged again to remove any further clots, and serum was submitted for analysis. For CBC/differentials, 500 μL of blood was collected into EDTA tubes and analyzed.

[20] = TRAIL protein / recombinant TRAIL, cited from earlier work
[21] = single dose at 2 weeks post-implantation
[22] = tumor-free mice, TIC10 100 mg/kg i.v.
[23] = 25 mg/kg intravenous, plasma, two-compartment model
[24] = female, C57/B6, mouse, in vivo, iv, 25 mg/kg
[25] = serum, TIC10 25 mg/kg oral weekly for 4 weeks

Compound: Cc1ccccc1CN1C(=O)C2=C(CCN(Cc3ccccc3)C2)N2CCN=C12 [TIC10]
- Median Survival [1, 21]: 74 days
- change in overall survival ([1]; single dose, intracranial xenograft of human GBM): doubled
- ΔMedian Survival ([1]; versus control cohort, single dose at 2 weeks post-implantation): 46 days
- prolongation of survival [2]: 4 weeks
- duration of sustained serum levels of secreted TRAIL (TRAIL [3]; after a single dose of TIC10): 3 to 4 days
- duration of elevated serum levels of TRAIL (TRAIL [3]; [22]): greater than 72 hours
- time at which serum TRAIL induced by TIC10 was detected following administration (TRAIL [3]; [22]): 2 h
- GI50 (GBM cell lines): low micromolar range
- effect on tumor (HCT116 p53−/− xenograft): tumor regression
- effect on tumor (SW480 xenograft): sustained regression
- effect on tumor (HCT116 xenograft): sustained anti-tumor efficacy
- effect on tumor [4]: sustained regression
- tolerability / body weight at endpoint [5]: well tolerated
- blood-brain barrier crossing [6]: crosses the blood-brain barrier
- thermal stability of cytotoxic activity (HCT116 cells): thermally stable
- TRAIL mRNA levels [7]: dose-dependent increase
- TRAIL protein localized to the cell surface [8]: dose-dependent increase
- cytotoxicity in primary colon cancer cells [9]: potent cytotoxic effects
- pAkt and pERK levels [10]: abolished
- TRAIL protein in normal tissues (IHC) (TRAIL [11]): upregulated at the protein level in the brain, kidney, and spleen
- toxicity in normal tissues by histology and TUNEL staining (TRAIL [11]): without apparent toxicity
- clonogenic survival (cancer cell lines): decreased the clonogenic survival
- sub-G1 DNA content (HCT116 p53−/− cells): induced sub-G1 DNA content
- cell cycle profile of normal fibroblasts (HFF cells [12]): without altering the cell cycle profiles
- cytotoxicity in freshly isolated GBM cells [13]: cytotoxic effects
- TRAIL promoter luciferase reporter activity [14]: induced TRAIL promoter-dependent transcriptional activity
- effect on tumor (DLD-1 xenografts): tumor stasis
- effect on tumor [15]: regression
- t1/2α ([16]; 25 mg/kg intravenous, plasma): 2.82 min
- t1/2β ([16]; 25 mg/kg intravenous, plasma): 385 min
- α [16, 23]: 14.9 h⁻¹
- β [16, 23]: 0.108 h⁻¹
- AUC(0-inf) [16, 24]: 63.9 µM·h
- Cmax [16, 24]: 44.2 µM
- Tmax [16, 24]: 1.2 min
- Vd [16, 24]: 9.39 L/kg
- clearance [16, 24]: 16.8 mL/min/kg
- effects on body weight or liver histology [17]: no adverse effects on body weight or liver histology
- effect on normal fibroblasts in colony formation experiment (HFF cells [18]): sparing normal fibroblasts
- changes in a panel of serum chemistry markers ([19]; oral TIC10 25 mg/kg weekly for 4 weeks, immuno-competent mice): did not cause any changes
- Albumin [19, 25]: 2.9 g/dL
- Alkaline phosphate [19, 25]: 112 ± 12 U/L
- Blood urea nitrogen [19, 25]: 33.75 ± 7.3 mg/dL
- Chloride [19, 25]: 104 mM
- Creatinine [19, 25]: 0.15 ± .06 mg/dL
- Lactate dehyrogenase [19, 25]: 287.5 ± 125 U/L
- Potassium [19, 25]: 7.325 ± 3.2 mM
- Sodium [19, 25]: 154.5 ± 5.2 mM
- Total Protein [19, 25]: 4.97 ± .61 g/dL
- Total bilirubin [19, 25]: 2.725 ± 2.4 mg/dL

Compound: TRAIL: Purified, recombinant TRAIL (TNF-related apoptosis-inducing ligand; Apo2L)
- serum half-life [20]: 20 to 30 min
- serum half-life ([20]; listed as recombinant TRAIL): ~30 min
- effect on tumor (DLD-1 xenografts): progressed
- effect on tumor [15]: progressed

Compound: bevacizumab [reference compound]
- Median Survival [1, 21]: 70 days

From patent US12036223B2, “Small molecule trail gene induction by normal and tumor cells as an anticancer therapy” (The Penn State Research Foundation, priority 2011, dated 2024)
